# Test results taken from US11207321B2, “Methods and medical uses” (Institute of Cancer Research: Royal Cancer Hospital (The), priority 2017, dated 2021).
# Tested on: palbociclib-resistant breast cancer cell lines (wild type and LTED)
# Assay: Proliferation assays with MPS1 inhibitors in panel of palbociclib-resistant breast cancer cell lines
# Format: cell-based
# Conditions: addition of CCT289346 to palbociclib
# Description: Wt cells were stripped of E2 for 72 hrs prior to experiment. After 24 hrs cells were treated with escalating doses of MPS1 inhibitors±palbocliclib. Media was replaced after 3 days and cell viability was assessed after 6 days using the CellTitre-Glo® Luminescent Cell Viability Assay (Promega) according to manufacturer's instructions.
compound,measurement,value
"CCOc1cc(-c2nncn2C)ccc1Nc1ncc2cc(C)nc(NCC(C)(C)C)c2n1 [CCT289346, N2-(2-ethoxy-4-(4-methyl-4H-1,2,4-triazol-3-yl)phenyl)-6-methyl-N8-neopentylpyrido[3,4-d]pyrimidine-2,8-diamine]",effect of combination with palbociclib,synergistic/additive effect
